In patent publication US6046228A, “Anti-viral pharmaceutical compositions containing saturated 1,2-dithiaheterocyclic compounds and uses thereof” (priority 1999, dated 2000):
Read-outs that look alike come from different tables or passages of the source.

Columns and labels:
Format in all cases: cell-based
HIV-1 VIHU(NSI) = assay: antiviral assay in PBL (p24), clinical isolate VIHU; details: Human immunodeficiency virus 1, cell-free p24
Experimental: (§1) Initial anti-HIV screening was performed with CEM-SS cells and HIV-1RFusing the XTT cytoprotection assay as previously described (Weislow et al., J. National Cancer Inst. 81: 577-586, (1989)). HIV-1 isolates included common laboratory stains (RF, IIIB and MN), as well as a panel of HIV-1 clinical isolates (Cushman et al., J. Med. Chem. 37: 3040-3050, (1994)). The pyridone-resistant HIV-1A17 isolate (Nunberg et al., J. Virol., 65: 4887-4892 (1991)) was obtained from Emilio Emini at Merck Sharpe and Dohme Laboratories. Phytohemagglutinin-stimulated human peripheral blood lymphocytes (PBLs) and fresh monocyte-macrophage (Mono/MF) cultures were prepared and utilized in antiviral assays as previously described (Rice et al., Proc. Nat'l. Academy Science, USA 90: 9721-9724, (1993)); (Cushman et al., J. Med. Chem. 37: 3040-3050, (1994)). EC50 values for these cultures indicate the drug concentration that provided a 50% reduction in viral p24 production. […] The compounds can be synthesized according to the teachings of Singh et al., Sulfur Letters 8: 107-114, (1988). The 4,5-cis-dihydroxy(1,1-dioxy-1,2,-dithiohexane) compound (NSC 624151) has been abbreviated as 624151 for convenience. […]

SIV = assay: XTT cytopathicity assay, other retroviruses; details: Simian immunodeficiency virus
HIV-1 BAKI(SI) = assay: antiviral assay in PBL (p24), clinical isolate BAKI; details: Human immunodeficiency virus 1, cell-free p24
Experimental: as §1

HIV-1 Clade A = assay: XTT cytopathicity assay, HIV-1 clade; details: CEM-SS
Experimental: (§2) Initial anti-HIV screening was performed with CEM-SS cells and HIV-1RFusing the XTT cytoprotection assay as previously described (Weislow et al., J. National Cancer Inst. 81: 577-586, (1989)). HIV-1 isolates included common laboratory stains (RF, IIIB and MN), as well as a panel of HIV-1 clinical isolates (Cushman et al., J. Med. Chem. 37: 3040-3050, (1994)). The pyridone-resistant HIV-1A17 isolate (Nunberg et al., J. Virol., 65: 4887-4892 (1991)) was obtained from Emilio Emini at Merck Sharpe and Dohme Laboratories. Phytohemagglutinin-stimulated human peripheral blood lymphocytes (PBLs) and fresh monocyte-macrophage (Mono/MF) cultures were prepared and utilized in antiviral assays as previously described (Rice et al., Proc. Nat'l. Academy Science, USA 90: 9721-9724, (1993)); (Cushman et al., J. Med. Chem. 37: 3040-3050, (1994)). EC50 values for these cultures indicate the drug concentration that provided a 50% reduction in viral p24 production. […] The compounds can be synthesized according to the teachings of Singh et al., Sulfur Letters 8: 107-114, (1988). The 4,5-cis-dihydroxy(1,1-dioxy-1,2,-dithiohexane) compound (NSC 624151) has been abbreviated as 624151 for convenience. MT-2, MT-4, U1, HeLa-CD4-LTR-β-gal and 174xCEM cells were obtained from the AIDS Research and Reference Program (National Institute of Allergy and Infectious Disease, National Institutes of Health, Bethesda, Md. USA), as were the HIV-2MS and the AZT-resistant HIV-1G910-6 isolates.
(§3) ^a Anti-HIV studies utilizing lymphocytederived cell lines were
(§4) performed using the XTT cytopathicity assay, while antiviral assays

HIV-1 Clade F = assay: XTT cytopathicity assay, HIV-1 clade; details: CEM-SS
Experimental: as §2, §3, §4

HIV-1 Clade B = assay: XTT cytopathicity assay, HIV-1 clade; details: CEM-SS
Experimental: as §2, §3, §4

HIV-1 Clade D = assay: XTT cytopathicity assay, HIV-1 clade; details: CEM-SS
Experimental: as §2, §3, §4

HIV-1 Clade C = assay: XTT cytopathicity assay, HIV-1 clade; details: CEM-SS
Experimental: as §2, §3, §4

CEM-SS cells = assay: XTT assay, cytotoxicity (IC50), CEM-SS cells
Experimental: as §2, with “The 4,5-cis-dihydroxy(1,1-dioxy-1,2,-dithiohexane) compound (NSC 624151) has been abbreviated as 624151 for convenience.” left out
Racemate and enantiomers of the cis-1,1-dioxo[1,2]dithiane-4,5-diol were synthesized and evaluated for antiviral activity in the XTT assay as described hereinabove.

[1] = system: attachment of HIV-1 to fresh human PBLs; assay: virus attachment assay, HIV-1RF to PBLs (p24-based)
Experimental: Binding of HIV-1RF to PBLs was measured by a p24-based assay (Rice, et al., Proc. Nat'l. Academy of Science USA 90: 9721-9724, (1993)). Briefly, 5×10^5 PBLs were incubated with a concentrated stock of virus for 30 min. at 37° C. in the absence or presence of various concentrations of 624151, the unbound virus was washed away, and the cell-associated virus was solubilized in 1% Triton X-100, 1% BSA and analyzed by the p24 antigen capture assay as previously described. The binding of gp120to CD4 was analyzed using an antigen capture ELISA. All steps of the assay were carried out according to the manufacturer's protocols.
^.dagger. Attachment of HIV1 to fresh human PBLs, binding of gp120 to […]

HIV-1 6R(AZT^R) = assay: XTT cytopathicity assay, AZT-resistant 6R; details: MT-4, 6R(AZT^R)
Experimental: as §1

SMILES: O=S1(=O)C[C@H](O)[C@H](O)CS1 (relative stereo) [NSC 624151, cis-1,1-dioxo[1,2]dithiane-4,5-diol]
- EC50 (HIV-1 VIHU(NSI)): 12 µM
- EC50 (SIV): 22 µM
- EC50 (HIV-1 BAKI(SI)): 19 µM
- EC50 (HIV-1 Clade A): 22 µM
- EC50 (HIV-1 Clade F): 69 µM
- EC50 (HIV-1 Clade B): 5.5 µM
- EC50 (HIV-1 Clade D): 20 µM
- EC50 (HIV-1 Clade C): 2.9 µM
- IC50 (CEM-SS cells; Homo sapiens, CEM-SS, Table 5, cytotoxicity, read-out: IC50 Duplicates): 116 µM
- IC50 (CEM-SS cells; Homo sapiens, CEM-SS, Table 5, cytotoxicity, read-out: IC50 Mean): 122 µM
- IC50 (CEM-SS cells; Homo sapiens, CEM-SS, cytotoxicity, CEM-SS cells, read-out: XTT Assay IC50): 184 µM
- IC50 (CEM-SS cells; Table 5, cytotoxicity, read-out: IC50 Duplicates): 127 µM
- Attachment ([1]; Table 6): NI100μμ
- inhibition of attachment of HIV-1 virions to target cells ([1]; in words): did not inhibit
- EC50 (HIV-1 6R(AZT^R)): 7.2 µM
